Data set [1] concerns Homo sapiens. Put plainly: Tmax in 1 to <3 months old infant assessed as penciclovir at 6.6 +/- 1.4 mg/kg, po single dose. The class given is ADME, organism-based. Details: route oral. The settings on record: in vivo.
Data set [2] deals with Homo sapiens. Put plainly: Cmax in 1 to <3 months old infant assessed as penciclovir at 6.6 +/- 1.4 mg/kg, po single dose. The class given is ADME, organism-based. Details: route oral. The conditions noted are these: in vivo.
Data set [3] relates to Homo sapiens. Briefly: AUC (0 to 6 hrs) in 1 to <3 months old infant assessed as penciclovir at 6.6 +/- 1.4 mg/kg, po single dose. The class given is ADME, organism-based, Plasma. The conditions noted are these: in vivo. Details: time < 6 hr, route oral.
Data set [4] deals with Homo sapiens. Put plainly: Tmax in 2 to <6 months old infant assessed as penciclovir at 6.6 +/- 1.4 mg/kg, po single dose. The conditions noted are these: in vivo. The class given is ADME, organism-based. Also on record: route oral.
Data set [5] relates to Homo sapiens. Briefly: Cmax in 2 to <6 months old infant assessed as penciclovir at 6.6 +/- 1.4 mg/kg, po single dose. The class given is ADME, organism-based. Also on record: route oral. The conditions noted are these: in vivo.
The subject of data set [6] is Homo sapiens. Briefly: AUC (0 to 6 hrs) in 2 to <6 months old infant assessed as penciclovir at 6.6 +/- 1.4 mg/kg, po single dose. Also on record: time < 6 hr, route oral. The data set is classed as ADME, organism-based, Plasma. The settings on record: in vivo.
The test system of data set [7] is Homo sapiens. Put plainly: Tmax in 6 to 12 months old infant assessed as penciclovir at 6.6 +/- 1.4 mg/kg, po single dose. The settings on record: in vivo. The data set is classed as ADME, organism-based. Also on record: route oral.
The test system of data set [8] is Homo sapiens. Put plainly: Cmax in 6 to 12 months old infant assessed as penciclovir at 6.6 +/- 1.4 mg/kg, po single dose. The class given is ADME, organism-based. Also on record: route oral. The settings on record: in vivo.
The subject of data set [9] is Homo sapiens. Put plainly: AUC (0 to 6 hrs) in 6 to 12 months old infant assessed as penciclovir at 6.6 +/- 1.4 mg/kg, po single dose. The class given is ADME, organism-based, Plasma. Also on record: time < 6 hr, route oral. The settings on record: in vivo.
The subject of data set [10] is Homo sapiens. Briefly: Toxicity in 1 to 12 months old infant assessed as adverse events at 13.5 mg/kg, po single dose within 8 days. The class given is organism-based. Details: dose 13.5 mg/kg, route oral. The conditions noted are these: in vivo, 192 h.
The subject of data set [11] is Homo sapiens. Put plainly: Toxicity in 1 to 12 months old infant assessed as mild adverse events at 13.5 mg/kg, po single dose within 8 days. Details: dose 13.5 mg/kg, route oral. The data set is classed as organism-based. The conditions noted are these: in vivo, 192 h.
For data set [12], the system named is Homo sapiens. Put plainly: Toxicity in 1 to 12 months old infant assessed as moderate adverse events at 13.5 mg/kg, po single dose within 8 days. The settings on record: in vivo, 192 h. Also on record: dose 13.5 mg/kg, route oral. The data set is classed as organism-based.
Data set [13] has as its system Homo sapiens. Briefly: Toxicity in 1 to 12 months old infant assessed as severe adverse events at 13.5 mg/kg, po single dose within 8 days. The data set is classed as organism-based. Details: dose 13.5 mg/kg, route oral. The settings on record: in vivo, 192 h.

As for `CC(=O)OCC(CCn1cnc2cnc(N)nc21)COC(C)=O` [FAMCICLOVIR], the Tmax is 1 h with Homo sapiens [1], 4 h with Homo sapiens [4] and 1.02 h with Homo sapiens [7]. Moreover, the Cmax with Homo sapiens [2] came out at 690 ng/mL; in the data set with Homo sapiens [5], 740 ng/mL; with Homo sapiens [8] it was 3240 ng/mL. Further, the exposure (AUC) worked out at 2110 ng·h/mL in the data set with Homo sapiens [3], 3160 ng·h/mL in the data set with Homo sapiens [6] and 8770 ng·h/mL in the data set on Homo sapiens [9]. Besides, the Activity with Homo sapiens [10] was 44.4%; with Homo sapiens [11] it was 16.7%; in the data set on Homo sapiens [12] it was 22.2%; with Homo sapiens [13] it was 5.6%.

For orientation: Tmax means the time from dosing to the highest level. What is called Cmax is the peak of the concentration-time curve. The AUC is concentration integrated over time.
